Values joined by “and” are separate entries in the source; they are usually repeats but may differ in a detail not shown here. Equal entries are not always repeated.
Tests used:
[1] = system: rat liver cells; assay: Comet assay in presence of FPG, liver; details: in presence of FPG, 200 mg/kg
Protocol: (§1) Animals were anesthetized by 3.5% isoflurane (approximately 3 min, evaporator Dräger Vapor 19.3) and then killed by cervical dislocation. The liver was removed and its left lateral lobe used for the Comet assay. The remainder of the liver was washed in saline and then in two aliquots shock frozen in liquid nitrogen and stored at − 80 °C for later examinations. Subsequently the lung was removed from the dead animal. Its left lobe was used for the Comet assay and the remainder treated as described above for the liver. Thereafter the femora were removed for the preparation of the bone marrow.
(§2) The Comet assay was performed under alkaline conditions according to the principles described by Singh et al. ([1988]) and Tice et al. ([2000]).
(§3) Liver and lung cells were obtained essentially as described by Hartmann et al. ([2004]) and by the Japanese Center for the Validation of Alternative Methods (JaCVAM [2009]). Single cells were obtained within 1 h after killing of the animals in order to minimize DNA damage during the preparation.
(§4) The organ parts (see above) were washed in mincing buffer (50 mM EDTA in HBSS [without Ca^2+ and Mg^2+] pH 7.5: DMSO 9:1 (v/v), the latter added shortly before use, stored at 4 °C), cut into 1 to 2-mm pieces in ice-cold mincing buffer and transferred to a cell sieve with 70-µm pores. The viability of the cell suspension was evaluated by the Trypan Blue Assay (Strober [2001]).
(§5) 100 µL of the obtained cell suspension was mixed at 37 °C with 900 µL Low Melting Agarose (LMA) (0.7% agarose in phosphate-buffered saline [PBS] [Biochrom, Berlin, Germany] without Ca^2+ and Mg^2+). 100 µL of this mixture was transferred to a slide, which had been coated with Normal Melting Agarose (NMA) (0.6% agarose in PBS without Ca^2+ and Mg^2+). The slides were protected with a cover slip and the agarose was hardened at approximately 4 °C. The cover slips were then removed and the slides put over night at 4 °C into lysis buffer (2.5 M NaCl, 125 mM NaOH, 127 mM EDTA, 10 mM Tris/NaOH, pH 10; 1% Triton X-100 and 10% DMSO (v/v), the latter two added before use) in order to lyse the cell membrane, nuclear membrane and remove the histone.
(§6) The then following procedures were performed in a shaded room to minimize UV-mediated DNA damage during the procedures.
Those slides which were destined to be treated with the DNA base excision repair enzyme FPG (Sigma Aldrich, Steinheim, Germany) were washed (3 times for 5 min) with FPG buffer (0.04 M HEPES, 0.5 mM EDTA, 0.1 M KCl, pH 8; add shortly before use bovine serum albumin [BSA] to a final concentration of 0.02%). Subsequently 50 µL FPG-enzyme-buffer (prepared shortly prior to use by 30-fold dilution of the following suspension in FPG buffer: 7 µL FPG-enzyme (14 U) and 70 µL glycerol in 623 µL FPG-Puffer, stored at − 80 °C) was pipetted on the slide which was covered with a cover slide and incubated for 30 min at 37 °C while being placed on a humid filter paper. After hardening of the agarose cover slips were removed.
(§7) Remaining lysis buffer or FPG buffer was removed by immersing/washing the slides in PBS (without Ca^2+ and Mg^2+).

[2] = system: rat lung cells; assay: Comet assay, conventional (no FPG), lung; details: no FPG; for Increase of the TI vs vehicle control / Hedgehogs/100 cells (mean ± SD) / TI (%) (mean ± SD) / TI (%), mean of medians from 2 slides: lung; for Increase of the TI vs vehicle control: p ≤ 0.01; for Hedgehogs/100 cells (mean ± SD) / TI (%) (mean ± SD) / TI (%), mean of medians from 2 slides: 200 mg/kg bw oral, once; for TI (%), mean of medians from 2 slides: individual animals
Protocol: as §1, §2, §3, §4, §5, §6, §7
(§8) The slides were then placed into the electrophoresis chamber, which was cooled and protected from light. Slides were covered with electrophoresis buffer (0.3 M NaOH, 1 mM EDTA, pH > 13) carefully avoiding air bubbles. The DNA was allowed to unwind (20 min). Thereafter the electrophoresis was started (25 V, 300 mA, […], 30 min). The slides were then washed (2 times 5 min) in neutralization buffer (0.4 M Tris/HCl, pH 7.5), dehydrated and fixed in 100% ethanol (1 min), dried at room temperature overnight and stored at room temperature protected from dust.
(§9) Quantitative evaluation of the Comet assays was performed by fluorescence microscopy after DNA staining with ethidium bromide.

[3] = Trypan Blue viability of the single cell suspension, lung; type: in vivo, rat; details: Wistar, rat, in vivo, po, 200 mg/kg
[4] = system: rat liver cells; assay: Comet assay, conventional (no FPG), liver; details: for Increase of the TI vs vehicle control: p ≤ 0.01; for Hedgehogs/100 cells (mean ± SD) / TI (%) (mean ± SD) / TI (%), mean of medians from 2 slides: liver, 200 mg/kg bw oral, once; for TI (%), mean of medians from 2 slides: individual animals
Protocol: as §1, §2, §3, §4, §5, §6, §7, §8, §9

## CCOS(C)(=O)=O [EMS, ethyl methanesulfonate, reference compound]
[1]
  Comets seen in presence of FPG: only hedgehogs were seen
  TI in presence of FPG (image analysis): marked increase
[2]; lung cells, 200 mg/kg
  Hedgehogs per 100 cells, averaged for both genders: 9 per 100 cells
[2]; female, 200 mg/kg
  Increase of the TI vs vehicle control: 21 fold
  TI (%), mean of medians from 2 slides: 13.2% and 13.0% and 18.7% and 18.8% and 17.8%
[2]; female
  Hedgehogs/100 cells (mean ± SD): 9 ± 5 /100 cells
  TI (%) (mean ± SD): 16.7 ± 2.83%
[2]; male, 200 mg/kg
  Increase of the TI vs vehicle control: 17 fold
  TI (%), mean of medians from 2 slides: 20.7% and 14.6% and 26.5% and 13.1% and 23.3% and 17.8%
[2]; male
  Hedgehogs/100 cells (mean ± SD): 9 ± 4 /100 cells
  TI (%) (mean ± SD): 19.3 ± 5.15%
[3]; female, Individual viability (%)
  viability at 24 h: 99%
[3]; female, Viability (%) (mean ± SD)
  viability at 24 h: 99 ± 1%
[3]; male, Individual viability (%)
  viability at 24 h: 99%
[3]; male, Viability (%) (mean ± SD)
  viability at 24 h: 99 ± 1%
[4]; 200 mg/kg body weight
  Tail intensity, liver, positive controls of the present study: 17–19%
[4]; liver cells, female, no FPG, 200 mg/kg
  Increase of the TI vs vehicle control: 28 fold
[4]; liver cells, male, no FPG, 200 mg/kg
  Increase of the TI vs vehicle control: 27 fold
[4]; liver cells, no FPG, 200 mg/kg
  Hedgehogs per 100 cells, averaged for both genders: 7.5 per 100 cells
[4]; female, no FPG
  Hedgehogs/100 cells (mean ± SD): 7 ± 4 /100 cells
  TI (%) (mean ± SD): 16.3 ± 4.49%
[4]; female, no FPG, 200 mg/kg
  TI (%), mean of medians from 2 slides: 9.1% and 13.6% and 17.5% and 22.4% and 17.8% and 17.3%
[4]; male, no FPG
  Hedgehogs/100 cells (mean ± SD): 8 ± 2 /100 cells
  TI (%) (mean ± SD): 18.6 ± 5.97%
[4]; male, no FPG, 200 mg/kg
  TI (%), mean of medians from 2 slides: 18.9% and 17.5% and 29.0% and 10.6% and 19.3% and 16.4%
